Measurements reported in ChEMBL document CHEMBL1140529, “Androstene-3,5-dienes as ER-beta selective SERMs” (Bioorg Med Chem Lett, 2007).

What was measured:
[1] = molecular target: T1, Estrogen receptor beta (Homo sapiens, UniProt Q92731); assay type: functional, cell-based, HEK293
Description: Agonist activity at ERbeta expressed in HEK293 cells by transactivation assay

[2] = molecular target: T2, Androgen receptor (Homo sapiens, UniProt P10275)
T2 sequence (P10275 whole entry): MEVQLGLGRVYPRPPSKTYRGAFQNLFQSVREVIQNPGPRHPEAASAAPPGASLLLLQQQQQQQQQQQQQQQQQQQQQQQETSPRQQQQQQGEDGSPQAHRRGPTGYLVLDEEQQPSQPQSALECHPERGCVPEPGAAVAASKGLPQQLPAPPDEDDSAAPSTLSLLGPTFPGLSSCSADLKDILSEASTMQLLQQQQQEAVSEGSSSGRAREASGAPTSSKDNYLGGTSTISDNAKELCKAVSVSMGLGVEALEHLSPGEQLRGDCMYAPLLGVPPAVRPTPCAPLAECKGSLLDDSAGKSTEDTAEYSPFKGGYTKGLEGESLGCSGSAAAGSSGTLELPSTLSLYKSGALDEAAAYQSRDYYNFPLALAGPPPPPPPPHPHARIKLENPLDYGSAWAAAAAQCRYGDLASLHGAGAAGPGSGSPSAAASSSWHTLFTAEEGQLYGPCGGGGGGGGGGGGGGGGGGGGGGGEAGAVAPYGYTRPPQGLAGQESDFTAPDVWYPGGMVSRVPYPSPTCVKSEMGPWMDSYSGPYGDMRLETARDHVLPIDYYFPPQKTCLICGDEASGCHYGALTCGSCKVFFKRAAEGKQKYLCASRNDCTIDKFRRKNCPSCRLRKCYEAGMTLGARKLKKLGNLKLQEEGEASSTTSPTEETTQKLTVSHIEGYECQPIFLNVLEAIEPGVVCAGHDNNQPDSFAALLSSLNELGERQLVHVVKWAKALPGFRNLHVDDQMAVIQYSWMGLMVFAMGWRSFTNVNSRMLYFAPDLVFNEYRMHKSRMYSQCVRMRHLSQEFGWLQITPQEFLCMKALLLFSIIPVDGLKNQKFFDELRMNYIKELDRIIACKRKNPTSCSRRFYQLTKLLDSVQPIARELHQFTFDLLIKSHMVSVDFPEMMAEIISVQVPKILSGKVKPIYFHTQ

[3] = molecular target: T1, Estrogen receptor beta
Description: Binding affinity at human recombinant ERbeta

[4] = molecular target: T3, Estrogen receptor (Homo sapiens, UniProt P03372)
T3 sequence (P03372 whole entry): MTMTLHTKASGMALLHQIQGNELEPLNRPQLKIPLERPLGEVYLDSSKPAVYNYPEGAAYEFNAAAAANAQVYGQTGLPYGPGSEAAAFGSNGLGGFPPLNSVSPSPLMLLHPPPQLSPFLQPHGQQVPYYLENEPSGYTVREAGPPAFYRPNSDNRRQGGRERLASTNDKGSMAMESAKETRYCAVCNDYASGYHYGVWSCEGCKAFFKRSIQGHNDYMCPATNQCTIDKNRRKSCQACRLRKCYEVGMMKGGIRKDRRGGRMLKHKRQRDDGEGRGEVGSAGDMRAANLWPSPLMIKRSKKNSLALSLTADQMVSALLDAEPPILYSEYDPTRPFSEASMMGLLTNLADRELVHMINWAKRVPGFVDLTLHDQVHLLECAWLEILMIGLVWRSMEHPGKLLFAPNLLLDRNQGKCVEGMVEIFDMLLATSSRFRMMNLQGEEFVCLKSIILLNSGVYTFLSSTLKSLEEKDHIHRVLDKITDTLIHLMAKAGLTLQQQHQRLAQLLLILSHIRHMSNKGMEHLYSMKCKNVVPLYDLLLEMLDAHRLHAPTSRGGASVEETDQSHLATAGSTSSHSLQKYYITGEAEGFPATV
Description: Binding affinity at human recombinant ERalpha

[5] = molecular target: T3, Estrogen receptor; assay type: functional, cell-based, HEK293
Description: Agonist activity at ERalpha expressed in HEK293 cells by transactivation assay

T1 sequence (Q92731 whole entry): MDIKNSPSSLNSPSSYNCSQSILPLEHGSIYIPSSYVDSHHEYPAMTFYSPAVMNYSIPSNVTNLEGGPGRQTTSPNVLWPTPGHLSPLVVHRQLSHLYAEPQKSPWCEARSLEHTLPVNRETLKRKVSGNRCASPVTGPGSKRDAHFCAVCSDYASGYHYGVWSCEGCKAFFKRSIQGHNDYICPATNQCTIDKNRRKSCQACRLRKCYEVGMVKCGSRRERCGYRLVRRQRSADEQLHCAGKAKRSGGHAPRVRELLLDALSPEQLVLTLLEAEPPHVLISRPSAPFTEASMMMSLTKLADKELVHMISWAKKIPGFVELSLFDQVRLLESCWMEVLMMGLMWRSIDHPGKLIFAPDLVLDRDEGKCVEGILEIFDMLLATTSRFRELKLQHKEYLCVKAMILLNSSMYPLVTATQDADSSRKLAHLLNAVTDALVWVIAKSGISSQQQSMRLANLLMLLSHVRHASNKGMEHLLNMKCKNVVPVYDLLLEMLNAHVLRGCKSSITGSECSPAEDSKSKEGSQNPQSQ

Row | SMILES | EC50 [1] | IC50 [2] | IC50 [3] | IC50 [4] | EC50 [5]
1 | C=C1C=C2CC[C@H]3[C@@H]4CC[C@H](O)[C@@]4(C)CC[C@@H]3[C@@]2(C)CC1 | 210 nM | 40 nM | 34 nM | – | –
2 | C=C[C@]12CCC(CC)=CC1=CC[C@H]1[C@@H]3CC[C@H](O)[C@@]3(C)CC[C@@H]12 | 565 nM | 500 nM | 115 nM | 3110 nM | > 1000 nM
3 | C=C[C@]12CC[C@H](O)CC1=CC[C@@H]1[C@@H]2CC[C@@]2(C)[C@H]1CC[C@]2(C)O | 190 nM | – | – | 1050 nM | > 1000 nM
4 | CC1=CC2=CC[C@H]3[C@@H]4CC[C@H](O)[C@@]4(C)CC[C@@H]3[C@@]2(C)CC1 | 220 nM | 2250 nM | 9.4 nM | – | –
5 | C=C[C@]12CC[C@@](C)(O)CC1=CC[C@H]1[C@@H]3CC[C@H](O)[C@@]3(C)CC[C@@H]12 | > 1000 nM | 2610 nM | 2490 nM | > 10000 nM | > 1000 nM
6 | C=C[C@]12CC[C@](C)(O)CC1=CC[C@H]1[C@@H]3CC[C@H](O)[C@@]3(C)CC[C@@H]12 | 240 nM | 842 nM | 255 nM | 5300 nM | > 1000 nM
7 | C=C[C@]12CCC(C)=CC1=CC[C@H]1[C@@H]3CC[C@H](O)[C@@]3(C)CC[C@@H]12 | 69 nM | 560 nM | 9 nM | 1440 nM | > 1000 nM
8 | C=C[C@]12CCC(C)=CC1=CC[C@@H]1[C@@H]2CC[C@@]2(C)[C@H]1CC[C@]2(C)O | 480 nM | 520 nM | 53 nM | 4380 nM | > 1000 nM
9 | C=C[C@]12CCC(c3ccccc3)=CC1=CC[C@H]1[C@@H]3CC[C@H](O)[C@@]3(C)CC[C@@H]12 | > 1000 nM | 3160 nM | 1760 nM | > 10000 nM | > 1000 nM
10 | C=C[C@]12CCC(=C)C=C1CC[C@H]1[C@@H]3CC[C@H](O)[C@@]3(C)CC[C@@H]12 | 230 nM | 330 nM | 120 nM | > 10000 nM | 430 nM
11 | C=C[C@]12CCC(Cl)=CC1=CC[C@H]1[C@@H]3CC[C@H](O)[C@@]3(C)CC[C@@H]12 | 170 nM | – | 64 nM | 5740 nM | 820 nM
12 | C#CC1(O)CC[C@H]2[C@@H]3CC=C4C=C(C)CC[C@]4(C=C)[C@H]3CC[C@@]21C (single isomer, unassigned) | 31 nM | 1620 nM | 72 nM | 1850 nM | 490 nM
13 | C#CC1(O)CC[C@H]2[C@@H]3CC=C4C[C@@H](O)CC[C@]4(C=C)[C@H]3CC[C@@]21C (single isomer, unassigned) | – | – | – | 150 nM | 130 nM
14 | C[C@]12CC[C@H]3[C@@H](CCC4=CC(=O)CC[C@@]43C)[C@@H]1CC[C@@H]2O [TESTOSTERONE] | – | – | > 10000 nM | – | –
